Our source for the IC50 and Activity values is ChEMBL document CHEMBL1157563 (J Med Chem, 2010).

Experiment [1] has as its target Epidermal growth factor receptor (Homo sapiens, UniProt P00533).
Experiment [2] concerns the target Receptor tyrosine-protein kinase erbB-2 (Homo sapiens, UniProt P04626).
The target in a further experiment is Histone deacetylase. Type of experiment: cell-based, Homo sapiens. To be noted: hela.
In experiment [3] the test system is HepG2. In words: Antitumor activity against human HepG2 cells xenografted in nude CD1 mouse at 25 mg/kg, po daily relative to control. It counts as functional. In general terms: Xenograft models place foreign cells or tissue in a host animal.
For a further experiment, the system named is MDA-MB-231. In words: Antiproliferative activity against human MDA-MB-231 cells after hrs by ATP content assay. It counts as functional, cell-based.
The subject of experiment [4] is MDA-MB-468. Kind of experiment: Antitumor activity against human MDA-MB-468 cells xenografted in nude CD1 mouse at 75 mg/kg, po bid relative to control.
For the next experiment, the system named is MCF7. In words: cells. It counts as functional, cell-based. To be noted: Homo sapiens.
In the next experiment the test system is SK-BR-3. In words: cells. To be noted: Homo sapiens. It counts as functional, cell-based.
A further experiment relates to SK-HEP1. Kind of experiment: cells. Type of experiment: functional, cell-based. To be noted: Homo sapiens.
The test system of experiment [5] is HepG2. Kind of experiment: Antiproliferative activity against human HepG2 cells after hrs by ATP content assay. It counts as functional, cell-based.
Experiment [6] is described as follows: cells. Type of experiment: functional, cell-based, Hep 3B2. To be noted: Homo sapiens, Hep3B.
Description: Antiproliferative activity against human Hep3B2 cells after hrs by ATP content assay
Experiment [7] has as its system HepG2. Kind of experiment: Antitumor activity against human HepG2 cells xenografted in nude CD1 mouse at 72 mg/kg, iv daily relative to control. Type of experiment: functional.
For another experiment, the system named is BXPC-3. In words: cells. The note with it: Homo sapiens. It counts as functional, cell-based.
The next experiment deals with CAPAN-1. In words: cells. It counts as functional, cell-based. To be noted: Homo sapiens.
Experiment [8] is described as follows: cells. Type of experiment: functional, cell-based. To be noted: Homo sapiens, HCC827.
Description: Antiproliferative activity against human HCC827 cells after hrs by ATP content assay
Experiment [9] relates to NCI-H358. In words: cells. It counts as functional, cell-based. To be noted: Homo sapiens.
Description: Antiproliferative activity against human NCI-H358 cells after hrs by ATP content assay
For another experiment, the system named is NCI-H460. In words: cells. Type of experiment: functional, cell-based. To be noted: Homo sapiens.
The test system of a further experiment is HCT-116. Kind of experiment: Antitumor activity against human HCT116 cells xenografted in nude CD1 mouse at 60 mg/kg, iv dosed daily on 5-2-5 (on-off-on) schedule relative to control. It counts as functional.
For another experiment, the system named is HPAC. In words: Antitumor activity against human HPAC cells xenografted in nude CD1 mouse at 120 mg/kg, iv daily relative to control. Type of experiment: functional.
A further experiment deals with CAL-27. Kind of experiment: Antitumor activity against human CAL27 cells xenografted in nude CD1 mouse assessed as tumor regression at 120 mg/kg, iv daily relative to control. Type of experiment: functional.
Experiment [10] has as its target Vascular endothelial growth factor receptor 2 (Homo sapiens, UniProt P35968). Kind of experiment: Inhibition of KDR.
Experiment [11] concerns NCI-H358. Kind of experiment: Antitumor activity against human NCI-H358 cells xenografted in nude CD1 mouse at 30 mg/kg, iv dosed daily on 7-6-5 (on-off-on) schedule relative to control. It counts as functional.
The test system of experiment [12] is NCI-H358. Kind of experiment: Antitumor activity against human NCI-H358 cells xenografted in nude CD1 mouse at 15 mg/kg, iv dosed daily on 7-6-5 (on-off-on) schedule relative to control. It counts as functional.
The target of experiment [13] is NAD-dependent protein deacetylase sirtuin-2 (Homo sapiens) (UniProt Q8IXJ6). In words: Inhibition of human SIRT2 expressed in Escherichia coli.
Experiment [14] deals with Tyrosine-protein kinase Lck (Homo sapiens, UniProt P06239). In words: Inhibition of Lck.
Sequence of Tyrosine-protein kinase Lck (P06239 whole entry): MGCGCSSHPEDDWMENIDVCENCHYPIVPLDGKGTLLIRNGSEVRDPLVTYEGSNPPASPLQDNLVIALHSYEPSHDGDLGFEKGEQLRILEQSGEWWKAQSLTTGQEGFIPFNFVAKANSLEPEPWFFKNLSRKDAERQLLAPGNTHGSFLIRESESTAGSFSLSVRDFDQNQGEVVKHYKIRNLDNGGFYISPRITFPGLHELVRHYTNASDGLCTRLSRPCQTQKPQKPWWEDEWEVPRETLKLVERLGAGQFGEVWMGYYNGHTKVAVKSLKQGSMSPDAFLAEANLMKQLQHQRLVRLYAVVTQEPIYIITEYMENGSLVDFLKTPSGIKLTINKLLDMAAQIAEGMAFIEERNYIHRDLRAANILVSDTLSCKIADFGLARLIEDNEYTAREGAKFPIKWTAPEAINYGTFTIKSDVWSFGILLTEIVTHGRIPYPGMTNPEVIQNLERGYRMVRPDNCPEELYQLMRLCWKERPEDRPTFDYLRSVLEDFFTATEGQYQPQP
The target in experiment [15] is Fibroblast growth factor receptor 2 (Homo sapiens, UniProt P21802). Kind of experiment: Inhibition of FGFR2.
Sequence of Fibroblast growth factor receptor 2 (P21802 whole entry): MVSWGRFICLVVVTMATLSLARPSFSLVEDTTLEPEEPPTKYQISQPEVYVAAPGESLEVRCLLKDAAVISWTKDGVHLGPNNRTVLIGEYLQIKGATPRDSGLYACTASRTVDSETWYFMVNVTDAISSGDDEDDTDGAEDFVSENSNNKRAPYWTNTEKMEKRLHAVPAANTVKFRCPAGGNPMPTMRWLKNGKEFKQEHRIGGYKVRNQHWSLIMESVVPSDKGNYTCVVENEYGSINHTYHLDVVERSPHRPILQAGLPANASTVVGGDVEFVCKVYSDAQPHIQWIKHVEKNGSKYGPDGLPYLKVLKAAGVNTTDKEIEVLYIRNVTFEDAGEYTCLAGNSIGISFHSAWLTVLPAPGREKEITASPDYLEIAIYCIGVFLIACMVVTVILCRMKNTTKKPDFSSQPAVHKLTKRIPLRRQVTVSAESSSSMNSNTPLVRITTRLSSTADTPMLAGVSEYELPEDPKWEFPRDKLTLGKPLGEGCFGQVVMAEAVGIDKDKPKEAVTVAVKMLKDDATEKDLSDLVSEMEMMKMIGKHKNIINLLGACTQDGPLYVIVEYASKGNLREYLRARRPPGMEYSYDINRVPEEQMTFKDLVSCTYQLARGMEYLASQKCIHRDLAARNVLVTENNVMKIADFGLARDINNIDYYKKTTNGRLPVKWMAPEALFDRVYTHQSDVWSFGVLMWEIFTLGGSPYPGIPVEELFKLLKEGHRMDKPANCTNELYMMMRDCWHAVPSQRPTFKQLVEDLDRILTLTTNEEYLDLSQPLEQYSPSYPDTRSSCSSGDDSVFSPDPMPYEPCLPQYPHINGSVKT
For experiment [16], the target named is Proto-oncogene tyrosine-protein kinase Src (Homo sapiens, UniProt P12931). Kind of experiment: Inhibition of Src.
Experiment [17] relates to HepG2. In words: Antitumor activity against human HepG2 cells xenografted in nude CD1 mouse assessed as tumor regression at 120 mg/kg, iv daily relative to control. It counts as functional.
Experiment [18] concerns the target Receptor-type tyrosine-protein kinase FLT3 (Homo sapiens, UniProt P36888). Kind of experiment: Inhibition of Flt3.
A further experiment concerns A549. Kind of experiment: Antitumor activity against human A549 cells xenografted in nude CD1 mouse at 120 mg/kg, iv daily relative to control. Type of experiment: functional.
The target in experiment [19] is NAD-dependent protein deacetylase sirtuin-1 (Homo sapiens) (UniProt Q96EB6). In words: Inhibition of human SIRT1 expressed in Escherichia coli.
Sequence of NAD-dependent protein deacetylase sirtuin-1 (Homo sapiens) (Q96EB6 whole entry): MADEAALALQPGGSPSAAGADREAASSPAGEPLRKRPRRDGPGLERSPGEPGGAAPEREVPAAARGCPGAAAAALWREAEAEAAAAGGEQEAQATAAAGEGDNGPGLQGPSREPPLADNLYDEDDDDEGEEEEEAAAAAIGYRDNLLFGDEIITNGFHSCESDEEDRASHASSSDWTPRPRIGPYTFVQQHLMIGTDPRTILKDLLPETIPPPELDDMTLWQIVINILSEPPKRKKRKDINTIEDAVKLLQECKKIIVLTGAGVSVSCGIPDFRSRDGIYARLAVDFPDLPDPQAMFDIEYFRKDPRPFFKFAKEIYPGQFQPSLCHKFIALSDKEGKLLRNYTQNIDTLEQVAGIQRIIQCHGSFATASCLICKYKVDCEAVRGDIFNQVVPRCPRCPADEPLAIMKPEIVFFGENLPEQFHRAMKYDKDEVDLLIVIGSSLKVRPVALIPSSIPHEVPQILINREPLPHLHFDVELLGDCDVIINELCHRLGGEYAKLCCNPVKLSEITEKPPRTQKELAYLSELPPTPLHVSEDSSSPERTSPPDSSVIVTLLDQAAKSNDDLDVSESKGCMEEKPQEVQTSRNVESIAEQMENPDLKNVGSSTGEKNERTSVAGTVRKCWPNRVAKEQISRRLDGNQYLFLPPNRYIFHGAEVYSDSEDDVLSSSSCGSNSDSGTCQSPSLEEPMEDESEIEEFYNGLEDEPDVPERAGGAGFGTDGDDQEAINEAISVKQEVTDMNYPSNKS
The test system of experiment [20] is NCI-H358. Kind of experiment: Antitumor activity against human NCI-H358 cells xenografted in nude CD1 mouse at 60 mg/kg, iv dosed daily on 7-6-5 (on-off-on) schedule relative to control. It counts as functional.
Experiment [21] has as its target Tyrosine-protein kinase Lyn (Homo sapiens, UniProt P07948). In words: Inhibition of Lyn.
For experiment [22], the target named is NAD-dependent protein deacetylase sirtuin-3, mitochondrial (Homo sapiens) (UniProt Q9NTG7). Kind of experiment: Inhibition of human SIRT3 expressed in Escherichia coli.
Experiment [23] has as its system MDA-MB-468. In words: Antitumor activity against human MDA-MB-468 cells xenografted in nude CD1 mouse assessed as tumor regression at 120 mg/kg, iv daily relative to control. Type of experiment: functional.

A word on the IC50: it is the point on the concentration scale where inhibition reaches its midpoint. A low value points to greater potency in that assay.

Calls of active or inactive are those of the source. No cut-off for these calls is given here.

Sequence of Receptor tyrosine-protein kinase erbB-2 (P04626 whole entry): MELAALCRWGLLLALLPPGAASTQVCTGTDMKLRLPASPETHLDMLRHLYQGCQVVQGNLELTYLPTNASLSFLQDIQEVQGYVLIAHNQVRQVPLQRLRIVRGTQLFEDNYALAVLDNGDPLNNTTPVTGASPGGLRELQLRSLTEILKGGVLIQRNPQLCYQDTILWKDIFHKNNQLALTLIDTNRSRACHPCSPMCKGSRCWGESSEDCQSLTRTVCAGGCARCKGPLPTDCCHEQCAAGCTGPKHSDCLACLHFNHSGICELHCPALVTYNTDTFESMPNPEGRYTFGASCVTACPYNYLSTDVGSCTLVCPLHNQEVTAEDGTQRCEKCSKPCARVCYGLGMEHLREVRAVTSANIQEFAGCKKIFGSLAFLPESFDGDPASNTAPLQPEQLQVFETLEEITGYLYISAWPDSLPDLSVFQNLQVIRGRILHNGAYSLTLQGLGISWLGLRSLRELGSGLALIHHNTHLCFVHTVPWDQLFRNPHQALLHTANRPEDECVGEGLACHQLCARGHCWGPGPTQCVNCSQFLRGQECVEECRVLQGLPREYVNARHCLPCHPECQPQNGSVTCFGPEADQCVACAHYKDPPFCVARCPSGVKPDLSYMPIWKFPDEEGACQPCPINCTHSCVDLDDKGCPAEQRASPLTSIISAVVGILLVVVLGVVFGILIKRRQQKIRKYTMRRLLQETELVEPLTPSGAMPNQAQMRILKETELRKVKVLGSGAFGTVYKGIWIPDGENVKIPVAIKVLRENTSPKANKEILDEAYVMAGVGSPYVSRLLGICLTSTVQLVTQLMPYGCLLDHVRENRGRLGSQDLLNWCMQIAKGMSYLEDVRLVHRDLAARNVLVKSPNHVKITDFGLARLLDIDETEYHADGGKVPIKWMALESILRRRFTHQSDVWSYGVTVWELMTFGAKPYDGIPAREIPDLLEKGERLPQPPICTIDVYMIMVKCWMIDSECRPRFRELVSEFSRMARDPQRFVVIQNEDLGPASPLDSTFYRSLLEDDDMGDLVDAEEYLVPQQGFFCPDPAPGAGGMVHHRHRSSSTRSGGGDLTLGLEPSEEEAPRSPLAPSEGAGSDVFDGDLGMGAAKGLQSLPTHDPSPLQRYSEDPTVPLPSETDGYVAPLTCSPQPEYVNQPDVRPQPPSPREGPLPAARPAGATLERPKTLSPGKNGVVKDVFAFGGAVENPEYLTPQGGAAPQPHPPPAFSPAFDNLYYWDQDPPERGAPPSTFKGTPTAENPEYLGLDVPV
Sequence of Epidermal growth factor receptor (P00533 whole entry): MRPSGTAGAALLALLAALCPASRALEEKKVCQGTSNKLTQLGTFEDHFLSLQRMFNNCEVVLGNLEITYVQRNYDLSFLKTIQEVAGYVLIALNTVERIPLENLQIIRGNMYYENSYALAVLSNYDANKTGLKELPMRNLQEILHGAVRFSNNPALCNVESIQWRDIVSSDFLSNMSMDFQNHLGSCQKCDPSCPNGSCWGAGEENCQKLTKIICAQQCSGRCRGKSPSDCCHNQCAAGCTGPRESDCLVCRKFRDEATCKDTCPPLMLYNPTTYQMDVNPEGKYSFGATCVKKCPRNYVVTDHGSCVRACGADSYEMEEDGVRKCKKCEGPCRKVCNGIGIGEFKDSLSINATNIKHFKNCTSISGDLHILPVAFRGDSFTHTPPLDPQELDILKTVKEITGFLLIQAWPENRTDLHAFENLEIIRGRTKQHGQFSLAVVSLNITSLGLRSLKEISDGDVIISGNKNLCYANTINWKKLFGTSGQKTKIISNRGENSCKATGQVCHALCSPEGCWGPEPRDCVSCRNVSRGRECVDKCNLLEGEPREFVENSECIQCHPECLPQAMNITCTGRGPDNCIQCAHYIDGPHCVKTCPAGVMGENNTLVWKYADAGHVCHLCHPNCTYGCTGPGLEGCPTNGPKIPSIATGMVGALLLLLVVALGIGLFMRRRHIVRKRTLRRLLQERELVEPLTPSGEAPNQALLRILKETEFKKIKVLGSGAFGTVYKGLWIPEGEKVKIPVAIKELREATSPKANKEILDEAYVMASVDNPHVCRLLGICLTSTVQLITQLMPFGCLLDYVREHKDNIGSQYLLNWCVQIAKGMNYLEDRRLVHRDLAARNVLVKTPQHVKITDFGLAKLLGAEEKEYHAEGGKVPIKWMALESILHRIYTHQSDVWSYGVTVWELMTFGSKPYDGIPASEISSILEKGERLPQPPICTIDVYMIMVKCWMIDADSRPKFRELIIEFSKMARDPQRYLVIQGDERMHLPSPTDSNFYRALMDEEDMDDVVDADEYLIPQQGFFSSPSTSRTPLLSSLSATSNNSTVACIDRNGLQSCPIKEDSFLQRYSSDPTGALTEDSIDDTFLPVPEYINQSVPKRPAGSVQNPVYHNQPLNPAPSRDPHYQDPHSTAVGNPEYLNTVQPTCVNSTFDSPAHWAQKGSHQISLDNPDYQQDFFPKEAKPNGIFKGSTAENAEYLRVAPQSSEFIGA
Sequence of Tyrosine-protein kinase Lyn (P07948 whole entry): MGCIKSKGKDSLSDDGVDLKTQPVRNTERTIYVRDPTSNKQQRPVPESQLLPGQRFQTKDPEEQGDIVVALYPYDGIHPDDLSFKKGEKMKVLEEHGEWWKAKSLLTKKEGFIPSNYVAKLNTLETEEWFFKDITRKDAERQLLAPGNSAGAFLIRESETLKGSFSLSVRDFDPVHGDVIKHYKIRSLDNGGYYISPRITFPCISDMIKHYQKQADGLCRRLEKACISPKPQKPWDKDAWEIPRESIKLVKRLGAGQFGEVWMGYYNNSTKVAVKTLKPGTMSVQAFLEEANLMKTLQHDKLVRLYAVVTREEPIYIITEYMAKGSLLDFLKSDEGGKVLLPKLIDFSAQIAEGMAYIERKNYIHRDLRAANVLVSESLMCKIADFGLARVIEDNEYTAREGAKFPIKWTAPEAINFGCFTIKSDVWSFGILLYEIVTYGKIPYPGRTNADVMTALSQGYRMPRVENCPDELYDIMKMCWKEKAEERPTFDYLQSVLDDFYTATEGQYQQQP
Description for BXPC-3: Antiproliferative activity against human BxPC3 cells after hrs by ATP content assay
Description for CAPAN-1: Antiproliferative activity against human Capan1 cells after hrs by ATP content assay
Description for Histone deacetylase: Inhibition of HDAC in human HeLa cell nuclear extract
Description for MCF7: Antiproliferative activity against human MCF7 cells after hrs by ATP content assay
Description for NCI-H460: Antiproliferative activity against human H460 cells after hrs by ATP content assay
Description for SK-BR-3: Antiproliferative activity against human SK-BR-3 cells after hrs by ATP content assay
Description for SK-HEP1: Antiproliferative activity against human SKHEP1 cells after hrs by ATP content assay

`COc1cc2ncnc(Nc3ccc(F)c(Cl)c3)c2cc1SCCCCCCC(=O)NO`: the IC50 in experiment [1] was 1.99 nM; in [2] it was 24.2 nM; against Histone deacetylase, 39.6 nM.
For `COc1cc2ncnc(Nc3ccc(F)c(Cl)c3)c2cc1OCCCC(=O)NO`, in that order: 7.8 nM, 12.4 nM and over 100000 nM.
For `C#Cc1cc(Nc2ncnc3cc(OC)c(OCCCCCCC(=O)NO)cc23)ccc1F`, in that order: 28.8 nM, 76.5 nM and 3.4 nM.
For `COc1cc2ncnc(Nc3ccc(F)c(Cl)c3)c2cc1OCCC(=O)NO`, in that order: 7.1 nM, 10.6 nM and 40900 nM.
For `COc1cc2ncnc(NCc3ccccc3)c2cc1OCCCCCCC(=O)NO`, the values for the IC50 (in experiment [1]; in [2]; against Histone deacetylase) were 99.4 nM, 225 nM and 4.2 nM, respectively.
For `COc1cc2c(Nc3ccc(F)c(Cl)c3)ncnc2cc1OCCCCCCC(=O)NO`, in that order: 7 nM, 71.2 nM and 66.6 nM.
For `COc1cc2ncnc(Nc3ccc(F)c(Cl)c3)c2cc1OCCCCC(=O)NO`, in that order: 9.4 nM, 15 nM and 551 nM.
For the molecule `C#Cc1cccc(Nc2ncnc3cc(OCCOC)c(OCCOC)cc23)c1` [ERLOTINIB], the Activity in the experiment with HepG2 [3] was 50.8%.
Turning to `COc1cc2ncnc(Nc3ccc(OCc4cccc(F)c4)c(Cl)c3)c2cc1OCCCCCCC(=O)NO`, the IC50 in experiment [1] was 9.08 nM; in [2], 10.1 nM; against Histone deacetylase it was 58.1 nM.
For `COc1cc2ncnc(Nc3ccc(F)c(Cl)c3)c2cc1NC(=O)CCCCCCC(=O)NO`, in that order: 2.1 nM, 20.1 nM and 15.3 nM.
On to `COCCOc1cc2ncnc(Nc3ccc(F)c(Cl)c3)c2cc1OCCCCCCC(=O)NO`, for which the results for the IC50 (in experiment [1]; in experiment [2]; against Histone deacetylase) were 10.4 nM, 24 nM and 8.4 nM, respectively.
Regarding `O=C(CCCCCCOc1ccc2ncnc(Nc3ccc(F)c(Cl)c3)c2c1)NO`, the values for the IC50 (in experiment [1]; in [2]; on Histone deacetylase) were 84.2 nM, 43.5 nM and 4.4 nM, respectively.
With `CS(=O)(=O)CCNCc1ccc(-c2ccc3ncnc(Nc4ccc(OCc5cccc(F)c5)c(Cl)c4)c3c2)o1` [LAPATINIB], the IC50 in the experiment on MDA-MB-231 turned out to be 5400 nM; in the experiment with MCF7, 6600 nM; in the experiment on SK-BR-3 it was 40 nM; in the experiment with SK-HEP1, 5300 nM; in the experiment on HepG2 [5] it was 6270 nM; in the experiment “cells [6]”, 5490 nM. The Activity in the experiment on MDA-MB-468 [4] came out at 51%.
For `COc1cc2ncnc(N[C@@H](C)c3ccccc3)c2cc1OCCCCCCC(=O)NO`, the figures for the IC50 (in experiment [2]; at Histone deacetylase) were over 2000 nM and 25.7 nM, respectively.
On to `COc1cc2ncnc(NCc3ccc(Cl)c(F)c3)c2cc1OCCCCCCC(=O)NO`, for which the IC50 is 72 nM in experiment [1], 478 nM in [2] and 11.3 nM against Histone deacetylase.
As to `COc1cc2ncnc(Nc3ccc(F)c(Cl)c3)c2cc1OCCCCCC(=O)NO`, the half-maximal inhibitory concentration (IC50) in [1] turned out to be 3.4 nM; in [2], 20 nM; on Histone deacetylase, 31 nM.
For `COc1cc2ncnc(NCc3ccc(F)cc3)c2cc1OCCCCCCC(=O)NO`, the IC50 in experiment [2] stood at 295 nM; on Histone deacetylase it was 5.6 nM.
For `C#Cc1cccc(Nc2ncnc3cc(OC)c(OCCCCCC(=O)NO)cc23)c1`, the IC50 came to 4.6 nM in experiment [1], 38.2 nM in experiment [2] and 13.2 nM against Histone deacetylase.
For `COc1cc2ncnc(NC(C)c3ccc(F)cc3)c2cc1OCCCCCCC(=O)NO` (single isomer, unassigned), in that order: 126 nM, 175 nM and 165.3 nM.
Regarding `C#Cc1cccc(Nc2ncnc3cc(OC)c(OCCCCC(=O)NO)cc23)c1`, the results for the IC50 (in experiment [2]; against Histone deacetylase) were 38.4 nM and 421 nM, respectively.
For `COc1cc2ncnc(N[C@H](C)c3ccccc3)c2cc1OCCCCCCC(=O)NO`, in that order: 27.8 nM and 98.4 nM.
Turning to `COc1cc2ncnc(Nc3ccc(F)c(Cl)c3)c2cc1S(=O)(=O)CCCCCCC(=O)NO`, the figures for the IC50 (in experiment [1]; in experiment [2]; against Histone deacetylase) were 15.4 nM, over 2000 nM and 121.7 nM, respectively.
Turning to `O=C(CCCCCCC(=O)Nc1ccccc1)NO` [VORINOSTAT], the IC50 was 2110 nM in the experiment with MDA-MB-231 and 1660 nM in the experiment on HepG2 [5]. Also, in the experiment with HepG2 [7], the Activity amounted to 26%.
In the case of `COc1cc2ncnc(Nc3ccc(F)c(Cl)c3)c2cc1OCCCCCCC(=O)NO`, the IC50 stood at 380 nM in the experiment with BXPC-3; 1730 nM with CAPAN-1; 370 nM with MDA-MB-231; 930 nM in the experiment “cells [8]”; 1100 nM in the experiment on MCF7; 710 nM in the experiment with NCI-H358 [9]. Further, the IC50 in the experiment with SK-BR-3 was 170 nM; in the experiment on SK-HEP1, 330 nM; in the experiment with HepG2 [5], 290 nM; in “cells [6]”, 600 nM; in the experiment with NCI-H460, 900 nM; in experiment [2], 19 nM. Also, at Histone deacetylase, the IC50 amounted to 6.5 nM.
`C#Cc1cccc(Nc2ncnc3cc(OCCCCCCC(=O)NO)c(OC)cc23)c1`: the IC50 came to 8.2 nM in experiment [1], 51.6 nM in experiment [2] and 34.1 nM on Histone deacetylase.
In the case of `C#Cc1cccc(Nc2ncnc3cc(OC)c(OCCCCCCC(=O)NO)cc23)c1` [CUDC-101], the Activity in the experiment with HCT-116 was 35.3%; in the experiment with HPAC, 35.1%; in the experiment on CAL-27, -36.5%; in the experiment with NCI-H358 [11], 10.3%; with NCI-H358 [12], 41.9%; in the experiment on HepG2 [17] it was -21.3%. For the same molecule, the Activity is listed as 35.9% in the experiment on A549, 6.5% in the experiment with NCI-H358 [20] and -13.7% in the experiment on MDA-MB-468 [23]. Besides, the IC50 in the experiment on BXPC-3 was 270 nM; in the experiment on CAPAN-1, 800 nM; in the experiment on MDA-MB-231 it was 100 nM; in [10] it was 849 nM; in “cells [8]”, 600 nM; with MCF7, 550 nM. Further, the IC50 in the experiment on NCI-H358 [9] stood at 400 nM; in the experiment on SK-BR-3, 40 nM; in [14], 5910 nM; in experiment [15], 3430 nM; in the experiment on SK-HEP1 it was 220 nM; in the experiment with HepG2 [5] it was 130 nM. For the same molecule, the IC50 in experiment [16] was determined as 11000 nM; in the experiment “cells [6]”, 230 nM; in experiment [18], 1500 nM; in the experiment with NCI-H460, 700 nM; in experiment [21], 840 nM. Moreover, the outcome in experiment [13], in experiment [19] and in [22] was inactive.
Take `COc1cc2ncnc(NC(C)c3ccc(Cl)cc3)c2cc1OCCCCCCC(=O)NO` (single isomer, unassigned): the IC50 in experiment [1] was determined as 614 nM; in experiment [2] it was 557 nM; against Histone deacetylase it was 188 nM.
